Results reported in patent US11235020B2, “Methods and compositions for inhibiting glyoxalase 1 (GLO1)” (priority 2013, dated 2022).
Read-outs that look alike come from different tables or passages of the source.

Tests used:
CD-1 mice = experiment: Accelerating rotarod; type: in vivo, mouse; settings: MG 300 mg/kg
Method: On day 1, mice were trained on the rotarod for five consecutive trials. […] The latency to fall and the rotarod speed at the time of the fall were recorded.

[1] = system: GABAA receptors in cerebellar granule neurons; experiment: Whole-cell patch clamp in cerebellar granule neurons (CGN); type: cell-based, rat
Method: (§1) Reagents: All reagents were obtained from Sigma-Aldrich.
Culture of rat CGN: CGN were cultured from mixed-sex Sprague-Dawley rats. Tissue was dissected from 6- to 8-day-old rats. Cells were suspended in minimal essential medium supplemented with 10% fetal calf serum, 26 mM glucose, 19 mM KCl, 2 mM 1-glutamine, and penicillin/streptomycin (50 IU/ml and 50 μg/ml). Cells were seeded on poly-1-lysine-coated coverslips and incubated in a humidified atmosphere containing 5% CO2 at 37° C. After 48 hours, the culture medium was replaced with minimal essential medium supplemented with 10% horse serum, 26 mM glucose, 19 mM KCl, 2 mM 1-glutamine, penicillin/streptomycin (50 IU/ml and 50 μg/ml), and 80 μM 1-fluorodeoxyuridine. Culture medium was exchanged every three days. All recordings were made from cells between days 6 to 9 in culture.
(§2) Filter and sampling frequencies were 5 and 25 kHz, respectively, for voltage-clamp experiments and 1 and 10 kHz, respectively, for current-clamp recording. Experiments were performed at 32° C. using a feedback-controlled heated perfusion system (Warner Instruments). Vm, ligand-gated currents, and potassium channel currents were studied in a bath solution containing 1 mM CaCl2, 1 mM MgCl2, 4 mM KCl, 140 mM NaCl, 5 mM glucose, and 10 mM HEPES (pH 7.4). […] Electrodes were coated with Sigmacote (Sigma) prior to use.
(§3) Ligand-gated currents: Ligand-gated currents were studied in voltage-clamp mode by application of reagents to cells held at −50 mV.

[2] = system: GABAA receptors in hippocampal neurons; experiment: Whole-cell patch clamp in hippocampal neurons (HN); type: cell-based, rat
Method: as §1
Neurons were maintained in neurobasal medium with B27 supplement and glutamax in a humidified atmosphere with 5% CO2 at 37° C.
as §2, §3

sodium currents = experiment: Voltage-gated sodium currents in CGN; type: cell-based, rat; settings: 10 μM MG
Method: Sodium currents: Sodium currents were studied as previously described (Plant 2006) using a bath solution containing 130 mM NaCl, 5 mM CsCl, 2 mM CaCl2, 1.2 mM MgCl2, 5 mM glucose, and 10 mM HEPES adjusted to pH 7.4 with NaOH. 500 nM tetrodotoxin (Sigma) was included in the bath […]. The electrode solution contained 60 mM CsCl, 80 mM CsF, 10 mM EGTA, 1 mM CaCl2, 1 mM MgCl2, 5 mM Na2ATP, and 10 mM HEPES adjusted to pH 7.4 with CsOH. All voltage-gated currents were studied following a P/5 leak subtraction protocol, and voltage-clamp errors were minimized with 80% series resistance compensation.

potassium currents = experiment: Potassium currents in CGN; type: cell-based, rat; settings: 10 μM MG
Excerpt: Potassium currents: Voltage-gated potassium channel currents were evoked using a previously reported protocol with modifications (Plant 2006). The whole voltage-gated potassium current, IK+, and the delayed rectifier current, IDR were isolated with two voltage protocols. First, IK+ was evoked by 250 ms test pulses to between −80 and 90 mV from −80 mV following a 250 ms pre-pulse to −140 mV. Then, the protocol was repeated using a −50 mV pre-pulse to inactivate IK+ and isolate IDR. The inactivating component of the current, IKA, was isolated by subtracting IDR from IK+ recorded in the same cells. The standing outward potassium leak current, IKso, and the inwardly rectifying potassium current, IKIR, were studied as previously reported with modifications (Plant 2002). Cells were held at −20 mV, and the membrane potential was ramped to −120 mV over a period of 100 ms before returning to −20 mV. Ramp hyperpolarizations were repeated every 20 seconds.

glycine receptors = experiment: Glycinergic currents in CGN; type: cell-based, rat; settings: 10 μM MG
Excerpt: Ligand-gated currents: Ligand-gated currents were studied in voltage-clamp mode by application of reagents to cells held at −50 mV. GABAergic and glycinergic currents were activated by application of GABA and glycine and antagonized by application of SR and strychnine, respectively (Kaneda 1995). Glutamatergic currents were activated by 1-glutamate and antagonized by CNQX and AP-5 (Wyllie 1994).

[3] = system: picrotoxin-induced seizures; experiment: Picrotoxin-induced seizures, behavioral scoring; type: in vivo, mouse; settings: MG 50 and 200 mg/kg pre-treatment, picrotoxin 5 mg/kg
Method: Drug administration: All experiments with MG utilized crude MG obtained from Sigma-Aldrich. For pre-treatment, MG (50 or 200 mg/kg) or vehicle (0.9% saline) was administered by i.p. injection 10 minutes before the seizure-inducing agent. For treatment after seizure onset, MG (200 mg/kg) or vehicle (0.9% saline) was administered by i.p. injection ten minutes after seizure onset. For GLO1 inhibition, BrBzGCp2 (50 mg/kg) or vehicle (8% DMSO and 18% Tween-80) was administered by i.p. injection two hours before seizure induction.
Seizure induction: For picrotoxin-induced seizures, 5 mg/kg of picrotoxin in 0.9% saline was administered by i.p. injection. Seizures were scored for one hour after picrotoxin administration. For pilocarpine-induced seizures, mice were pre-treated with atropine (5 mg/kg in 0.9% saline) by i.p. injection in order to reduce the peripheral effects of pilocarpine. Thirty minutes after atropine administration, pilocarpine was administered by i.p. injection. B6 mice were treated with 250 mg/kg pilocarpine in 0.9% saline, and FVB mice (WT and Tg) were treated with 300 mg/kg pilocarpine in 0.9% saline. Seizures were scored for 90 minutes after pilocarpine administration.
Seizure scoring: Picrotoxin-induced seizures were scored as the presence of generalized convulsions as well as the latency to and duration of generalized convulsions.

anxiety-like behavior = settings: intracerebroventricular MG for six days (Hambsch 2010); cited from earlier work
neuronal cell death = settings: literature (Di Loreto 2008; Di Loreto 2004; Li 2010); cited from earlier work
mice = experiment: Observation of sedation or gross deficits in treated mice; settings: MG 300 mg/kg, WT B6 mice, data not shown
[4] = system: anxiety-like behavior in C57BL6/J mice; experiment: OFT after bilateral microinjection into the basolateral amygdala (BLA); settings: MG 12 uM or 24 uM, 0.5 ul bilateral into BLA, over 30 m

In the case of `CC(=O)C=O` [MG, methylglyoxal], the “speed at fall from accelerating rotarod (ataxia)” value (CD-1 mice) is reported as “fell from an accelerating rotarod at slower speeds than vehicle-treated mice”, the EC50 ([1]; read-out: EC50 of evoked inward currents in CGN, whole-cell voltage clamp) is reported as 12 ± 0.7 µM and the EC50 ([1]; whole-cell current clamp, read-out: EC50 of depolarization of CGN) is reported as 10.5 ± 0.5 µM. The “peak response versus GABA in hippocampal neurons” value [2] was “approximately one-third of those evoked by GABA”, the “effect on major sodium currents” value (sodium currents) was “did not affect the major sodium currents” and the “effect on potassium currents” value (potassium currents) was “did not affect”. For the same compound, the “activation of glycine receptors” value (glycine receptors) was “did not activate”, the “duration of generalized convulsions” value [3] was “reduced seizure duration” and the “percentage of mice undergoing generalized convulsions” value [3] was “reduced the percentage of mice undergoing generalized convulsions”. For the same compound, the “latency to first generalized convulsion (seizure onset)” value ([3]; dose-dependent) was “delayed seizure onset”, the “anxiety-like behavior in the EPM” value (anxiety-like behavior) was “reduced anxiety-like behavior in the EPM” and the “MG concentrations that induce neuronal cell death in vitro” value (neuronal cell death) was 100-1,000 μM. The sedation (mice) was “caused sedation” and the “center duration in the OFT” value [4] was “increased center duration in the OFT”.
